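Exposure lasted 48 hours, with cells grown in 96-well plates and compounds tested at five concentrations. GI50 = concentration required for 50% inhibition of growth. The concentration for full growth arrest is given as TGI.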
Tested on: MDA-MB-468 breast
Test: NCI anticancer screen, dose series, 48 h

| Structure (SMILES) | GI50 [µM] | TGI [µM] |
| --- | --- | --- |
| CC(C)(C)N1CCC1C(N)=O (stereo unspecified) | > 100 | > 100 |
| N#Cc1c(C(=O)c2ccccc2)cnn1-c1ccccc1 | > 25 | > 25 |
| CCCCn1c2cc(OCc3cn(-c4ccc(Cl)cc4)nn3)ccc2c2ccnc(C)c21 | 5.23 | > 33.3 |
| Oc1ccc(Cc2ccc(O)c3ncccc23)c2cccnc12 | 0.278 | 0.902 |
| CCN(CC)c1ccc(/C=C\c2cc(C)c3cc(C)ccc3n2)cc1 | 3.02 | 20.3 |
| COc1ccc(/C=C/C(=O)c2cc3c(N)c(C(=O)Nc4ccccc4Cl)sc3nc2C)cc1 | 0.279 | 4.1 |
| C=C1[C@@H](C)[C@H]2[C@H](Cc3ccccc3)NC(=O)[C@]23OC(=O)/C=C/[C@H](O)CCC[C@@H](C)C/C=C/[C@H]3[C@@H]1O | 1.86 | > 100 |
| O=C(/C=C/c1cccnc1)NCCCCC1CCN(C(=O)c2ccccc2)CC1 | 27.5 | > 100 |
| OCc1cn(Cc2cccc(Cl)c2)c2ccccc12 | 0.0134 | 0.0333 |
| c1ccc(Cc2nc3ccc(Nc4ncnc5ccccc45)cc3[nH]2)cc1 | 6.65 | 24.3 |
| CC(=O)OC[C@H]1O[C@@H](n2ccc(=O)[nH]c2=O)[C@H](OC(C)=O)[C@@H]1OC(C)=O | > 100 | > 100 |
| CC1=C([Se]CC(OC(=O)CC[Se]c2ccccc2)C(=O)NCCCCCC(=O)OCc2ccccc2)C(=O)c2ccccc2C1=O (stereo unspecified) | 1.93 | 4.63 |
| COc1ccc(-n2c(SCc3cc(OC)c(OC)c(OC)c3)nc3ccc(C)cc3c2=O)c(OC)c1 | 3.16 | 9.38 |
| C[C@]12CCC3[C@@H](C[C@@H]4SC(Nc5ccccc5)=N[C@@]45CC(=O)CC[C@]35C)[C@@H]1CCC2=O (stereo partly specified) | 3.59 | 14.6 |
| C#Cc1cccc(Nc2ncnc3cc(OCCOC)c(OCCOC)cc23)c1 | 0.124 | 2.81 |
| CCN(Cc1cccc(OC)c1)c1ccc(CO)c(Cl)c1 | 0.0174 | 0.0456 |
| CC12CCC3C(CC=C4CC(O)CCC43C)C1C/C(=C\N1CCCC1)C2=O (stereo unspecified) | 51.2 | > 100 |
| C(=N\Nc1ccccn1)/c1ccccn1 | 0.237 | 0.748 |
